Measurements from ChEMBL document CHEMBL3600303, “The N-Terminal T-T Motif of a Third-Generation HIV-1 Fusion Inhibitor Is Not Required for Binding Affinity and Antiviral Activity” (J Med Chem, 2015).
pIC50: −log10 of the molar value. Active and inactive are the calls of the source. The calls are words filed in the database; no cut-off is given here.

Legend:
[1] = Thermostability of the compound in PBS assessed as melting temperature at 20 uM by CD spectroscopic analysis; format: physicochemical; conditions: buffer
[2] = biological target: Envelope glycoprotein gp160 (Human immunodeficiency virus type 1 group M subtype B (isolate HXB2)(HIV-1)) (UniProt P04578); assay: Binding affinity to HIV-1 HXB2 gp41 N-terminal heptad repeat assessed as thermostability of protein-compound complex at 10 uM after 30 mins by CD spectroscopic analysis; conditions: Human immunodeficiency virus 1
[3] = tested on: Human immunodeficiency virus 1; assay: Antiviral activity against HIV1 NL4-3 pseudovirus infected in human TZM-bl cells assessed as inhibition of viral entry into cells after 48 hrs by single-cycle infection assay; format: functional, organism-based; conditions: Human immunodeficiency virus 1, NL4-3, TZM-bl
[4] = tested on: Human immunodeficiency virus 1; assay: Antiviral activity against wild type HIV1 NL4-3 infected in human TZM-bl cells assessed as inhibition of viral replication after 2 days by luciferase reporter gene assay; format: functional, organism-based; conditions: Human immunodeficiency virus 1, NL4-3, TZM-bl, 48 h
[5] = tested on: Human immunodeficiency virus 1; assay: Antiviral activity against HIV-1 ZM214M.15 pseudovirus infected in human TZM-bl cells assessed as inhibition of viral entry into cells after 48 hrs by single-cycle infection assay; format: functional, organism-based; conditions: Human immunodeficiency virus 1, ZM214M.15, TZM-bl
[6] = tested on: Human immunodeficiency virus 1; assay: Antiviral activity against HIV-1 SF162 pseudovirus infected in human TZM-bl cells assessed as inhibition of viral entry into cells after 48 hrs by single-cycle infection assay; format: functional, organism-based; conditions: Human immunodeficiency virus 1, SF162, TZM-bl
[7] = tested on: Human immunodeficiency virus 1; assay: Antiviral activity against HIV-1 SC42261.8 pseudovirus infected in human TZM-bl cells assessed as inhibition of viral entry into cells after 48 hrs by single-cycle infection assay; format: functional, organism-based; conditions: Human immunodeficiency virus 1, SC42261.8, TZM-bl
[8] = biological target: Envelope glycoprotein gp160 (Human immunodeficiency virus type 1 group M subtype B (isolate HXB2)(HIV-1), UniProt P04578); assay: Binding affinity to HIV-1 HXB2 gp41 N-terminal heptad repeat assessed as inhibition of 6-helix bundle formation after 30 mins by ELISA; set-up: species or system Human immunodeficiency virus 1
[9] = tested on: Human immunodeficiency virus 1; assay: Antiviral activity against wild type HIV1 NL4-3 infected in human TZM-bl cells assessed as inhibition of viral entry into cells after 48 hrs by single-cycle infection assay; format: functional, organism-based; conditions: Human immunodeficiency virus 1, NL4-3, TZM-bl
[10] = tested on: Human immunodeficiency virus 1; assay: Antiviral activity against ENF-resistant HIV1 NL4-3 harboring gp41 N-terminal heptad repeat D36G mutant infected in human TZM-bl cells assessed as inhibition of viral entry into cells after 48 hrs by single-cycle infection assay; format: functional, organism-based
[11] = tested on: Human immunodeficiency virus 1; assay: Antiviral activity against ENF-resistant HIV1 NL4-3 harboring gp41 N-terminal heptad repeat I37T mutant infected in human TZM-bl cells assessed as inhibition of viral entry into cells after 48 hrs by single-cycle infection assay; format: functional, organism-based
[12] = tested on: Human immunodeficiency virus 1; assay: Antiviral activity against ENF-resistant HIV1 NL4-3 harboring gp41 N-terminal heptad repeat V38A mutant infected in human TZM-bl cells assessed as inhibition of viral entry into cells after 48 hrs by single-cycle infection assay; format: functional, organism-based
[13] = tested on: Human immunodeficiency virus 1; assay: Antiviral activity against ENF-resistant HIV1 NL4-3 harboring gp41 N-terminal heptad repeat V38M mutant infected in human TZM-bl cells assessed as inhibition of viral entry into cells after 48 hrs by single-cycle infection assay; format: functional, organism-based
[14] = tested on: Human immunodeficiency virus 1; assay: Antiviral activity against ENF-resistant HIV1 NL4-3 harboring gp41 N-terminal heptad repeat Q40H mutant infected in human TZM-bl cells assessed as inhibition of viral entry into cells after 48 hrs by single-cycle infection assay; format: functional, organism-based
[15] = tested on: Human immunodeficiency virus 1; assay: Antiviral activity against ENF-resistant HIV1 NL4-3 harboring gp41 N-terminal heptad repeat N43K mutant infected in human TZM-bl cells assessed as inhibition of viral entry into cells after 48 hrs by single-cycle infection assay; format: functional, organism-based
[16] = tested on: Human immunodeficiency virus 1; assay: Antiviral activity against ENF-resistant HIV1 NL4-3 harboring gp41 N-terminal heptad repeat D36S/V38M double mutant infected in human TZM-bl cells assessed as inhibition of viral entry into cells after 48 hrs by single-cycle infection assay; format: functional, organism-based
[17] = tested on: Human immunodeficiency virus 1; assay: Antiviral activity against ENF-resistant HIV1 NL4-3 harboring gp41 N-terminal heptad repeat I37T/N43K double mutant infected in human TZM-bl cells assessed as inhibition of viral entry into cells after 48 hrs by single-cycle infection assay; format: functional, organism-based
[18] = tested on: Human immunodeficiency virus 1; assay: Antiviral activity against ENF-resistant HIV1 NL4-3 harboring gp41 N-terminal heptad repeat V38A/N42T double mutant infected in human TZM-bl cells assessed as inhibition of viral entry into cells after 48 hrs by single-cycle infection assay; format: functional, organism-based
[19] = tested on: Human immunodeficiency virus 1; assay: Ratio of IC50 for ENF-resistant HIV1 NL4-3 harboring gp41 N-terminal heptad repeat D36G mutant to IC50 for wild type HIV1 NL4-3; format: functional
[20] = tested on: Human immunodeficiency virus 1; assay: Ratio of IC50 for ENF-resistant HIV1 NL4-3 harboring gp41 N-terminal heptad repeat I37T mutant to IC50 for wild type HIV1 NL4-3; format: functional
[21] = tested on: Human immunodeficiency virus 1; assay: Ratio of IC50 for ENF-resistant HIV1 NL4-3 harboring gp41 N-terminal heptad repeat V38A mutant to IC50 for wild type HIV1 NL4-3; format: functional
[22] = tested on: Human immunodeficiency virus 1; assay: Ratio of IC50 for ENF-resistant HIV1 NL4-3 harboring gp41 N-terminal heptad repeat V38M mutant to IC50 for wild type HIV1 NL4-3; format: functional
[23] = tested on: Human immunodeficiency virus 1; assay: Ratio of IC50 for ENF-resistant HIV1 NL4-3 harboring gp41 N-terminal heptad repeat Q40H mutant to IC50 for wild type HIV1 NL4-3; format: functional
[24] = tested on: Human immunodeficiency virus 1; assay: Ratio of IC50 for ENF-resistant HIV1 NL4-3 harboring gp41 N-terminal heptad repeat N43K mutant to IC50 for wild type HIV1 NL4-3; format: functional
[25] = tested on: Human immunodeficiency virus 1; assay: Ratio of IC50 for ENF-resistant HIV1 NL4-3 harboring gp41 N-terminal heptad repeat D36S/V38M double mutant to IC50 for wild type HIV1 NL4-3; format: functional
[26] = tested on: Human immunodeficiency virus 1; assay: Ratio of IC50 for ENF-resistant HIV1 NL4-3 harboring gp41 N-terminal heptad repeat I37T/N43K double mutant to IC50 for wild type HIV1 NL4-3; format: functional
[27] = tested on: Human immunodeficiency virus 1; assay: Ratio of IC50 for ENF-resistant HIV1 NL4-3 harboring gp41 N-terminal heptad repeat V38A/N42T double mutant to IC50 for wild type HIV1 NL4-3; format: functional
[28] = biological target: Envelope glycoprotein gp160 (Human immunodeficiency virus 1) (UniProt Q72502); assay: Binding affinity to HIV1 NL4-3 gp41 N-terminal heptad repeat G36D mutant after 30 mins by CD spectroscopic analysis
[29] = biological target: Envelope glycoprotein gp160 (Human immunodeficiency virus 1) (UniProt Q72502); assay: Binding affinity to HIV1 NL4-3 gp41 N-terminal heptad repeat I37T mutant after 30 mins by CD spectroscopic analysis
[30] = tested on: Envelope glycoprotein gp160 (Human immunodeficiency virus 1), Q72502 [V38A]; assay: Binding affinity to HIV1 NL4-3 gp41 N-terminal heptad repeat V38A mutant after 30 mins by CD spectroscopic analysis
[31] = biological target: Envelope glycoprotein gp160 (Human immunodeficiency virus 1) (UniProt Q72502); assay: Binding affinity to HIV1 NL4-3 gp41 N-terminal heptad repeat Q40H mutant after 30 mins by CD spectroscopic analysis
[32] = biological target: Envelope glycoprotein gp160 (Human immunodeficiency virus 1) (UniProt Q72502); assay: Binding affinity to HIV1 NL4-3 gp41 N-terminal heptad repeat N43K mutant after 30 mins by CD spectroscopic analysis
[33] = biological target: Envelope glycoprotein gp160 (Human immunodeficiency virus 1) (UniProt Q72502); assay: Binding affinity to HIV1 NL4-3 gp41 N-terminal heptad repeat I37T/N43K double mutant after 30 mins by CD spectroscopic analysis
[34] = biological target: Envelope glycoprotein gp160 (Human immunodeficiency virus 1) (UniProt Q72502); assay: Binding affinity to HIV1 NL4-3 gp41 N-terminal heptad repeat V38A/N42T double mutant after 30 mins by CD spectroscopic analysis
[35] = tested on: Human immunodeficiency virus 1; assay: Antiviral activity against wild type HIV-1; format: functional, organism-based
[36] = tested on: Human immunodeficiency virus 1; assay: Antiviral activity against HIV-1 pseudovirus harboring Q66R/N126K double mutant; format: functional, organism-based
Serum = assay: Metabolic stability in Sprague-Dawley rat serum at 4 mg/kg, ip measured at 0.5 to 2 hrs post dose; format: ADME, organism-based; conditions: in vivo

Q: For `CC[C@H](C)[C@H](NC(=O)[C@H](C)NC(=O)[C@H](CCCNC(=N)N)NC(=O)[C@H](CC(=O)O)NC(=O)[C@H](Cc1c[nH]c2ccccc12)NC(=O)[C@H](C)NC(=O)[C@H](CCC(=O)O)NC(=O)[C@H](Cc1c[nH]c2ccccc12)NC(=O)[C@@H](NC(=O)[C@@H](N)[C@@H](C)O)[C@@H](C)O)C(=O)N[C@@H](C)C(=O)N[C@@H](CCC(=O)O)C(=O)N[C@@H](Cc1ccc(O)cc1)C(=O)N[C@@H](C)C(=O)N[C@@H](C)C(=O)N[C@@H](CCCNC(=N)N)C(=O)N[C@H](C(=O)N[C@@H](CCC(=O)O)C(=O)N[C@@H](C)C(=O)N[C@@H](CC(C)C)C(=O)N[C@H](C(=O)N[C@@H](CCCNC(=N)N)C(=O)N[C@@H](C)C(=O)N[C@@H](C)C(=O)N[C@@H](CCC(N)=O)C(=O)N[C@@H](CCC(=O)O)C(=O)N[C@@H](CCC(N)=O)C(=O)N[C@@H](CCC(N)=O)C(=O)N[C@@H](CCC(=O)O)C(=O)N[C@@H](CCCCN)C(=O)N[C@@H](CC(N)=O)C(=O)N[C@@H](CCC(=O)O)C(=O)N[C@@H](C)C(=O)N[C@@H](C)C(=O)N[C@@H](CC(C)C)C(=O)N[C@@H](CCCNC(=N)N)C(=O)N[C@@H](CCC(=O)O)C(=O)N[C@@H](CC(C)C)C(=O)O)[C@@H](C)CC)[C@@H](C)CC`, which Tm [1] is on record?
A: 45.1 °C

Q: What about the Tm [2] of the same molecule?
A: 82.2 °C

Q: What about the pIC50 [3] of the same molecule?
A: 8.94

Q: What about the pIC50 [4] of the same molecule?
A: 9.28

Q: And the pIC50 [5]?
A: 9.17

Q: What about the pIC50 [6] of the same molecule?
A: 7.90

Q: What about the pIC50 [7] of the same molecule?
A: 8.58

Q: What about the pIC50 [8] of the same molecule?
A: 7.17

Q: What about the pIC50 [9] of the same molecule?
A: 8.96

Q: And the pIC50 [10]?
A: 8.77

Q: What about the pIC50 [11] of the same molecule?
A: 8.74

Q: What about the pIC50 [12] of the same molecule?
A: 8.89

Q: What about the pIC50 [13] of the same molecule?
A: 8.74

Q: And the pIC50 [14]?
A: 8.85

Q: And the pIC50 [15]?
A: 8.68

Q: And the pIC50 [16]?
A: 8.92

Q: And the pIC50 [17]?
A: 8.77

Q: What about the pIC50 [18] of the same molecule?
A: 9.10

Q: And the “Ratio IC50” value [19]?
A: 1.6

Q: And the “Ratio IC50” value [20]?
A: 1.6

Q: What about the “Ratio IC50” value [21] of the same molecule?
A: 1.2

Q: What about the “Ratio IC50” value [22] of the same molecule?
A: 1.6

Q: What about the “Ratio IC50” value [23] of the same molecule?
A: 1.3

Q: And the “Ratio IC50” value [24]?
A: 1.9

Q: And the “Ratio IC50” value [25]?
A: 1.1

Q: And the “Ratio IC50” value [26]?
A: 1.6

Q: What about the “Ratio IC50” value [27] of the same molecule?
A: 0.7

Q: And the Activity [28]?
A: Active

Q: And the Activity [29]?
A: Active

Q: What about the Activity [30] of the same molecule?
A: Active

Q: What about the Activity [31] of the same molecule?
A: Active

Q: And the Activity [32]?
A: Active

Q: What about the Activity [33] of the same molecule?
A: Active

Q: And the Activity [34]?
A: Active

Q: And the pIC50 [35]?
A: 8.88

Q: What about the pIC50 [36] of the same molecule?
A: 8.08

Q: And the Stability (Serum)?
A: Stable
